Among the data in patent US20240425454A1, “IONIZABLE CATIONIC COMPOUND” (SEQIRUS INC., priority 2021, published 2024) are pKa values, retold here.

The nature of the data set: TNS fluorescence pKa protocol on saRNA-LNP. The settings on record: saRNA-LNP containing the lipid, in a series of buffers; saRNA-LNP with the lipid; TNS 6 μM, pH 4 to 9.5, 25° C.; read-out: Apparent pKa. In kind it is physicochemical. How it is done:
In a black 96-well plate, solutions of saRNA-LNP (final assay concentration 2 μg/mL total RNA) in a series of buffers ranging from pH 4 to 9.5 were prepared. Buffers between pH 4 to 7.6 were prepared from disodium phosphate and citric acid. Buffers from 7.8 to 9.5 were prepared by titrating tris buffer with 10 N sodium hydroxide. To each well was added 6-(p-Toluidino)-2-naphthalenesulfonic acid sodium salt (TNS) in water to a final assay concentration of 6 μM. The fluorescence was read on a plate reader at 25° C. with an excitation setting of 321 nm and an emission setting of 445 nm. The intensity values were plotted as a function of pH using GraphPad Prism and were fit with a sigmoidal dose response curve. The apparent pKa was determined as the EC50 of this curve where half of the ionizable amines are expected to be protonated (see FIG. 1).

For the molecule `CCCCC(CCCC)OC(=O)CCCCCCCCC(CCCCCCCCC(=O)OC(CCCC)CCCC)OC(=O)COC1CCN(C)CC1` [SL06], the pKa was 7.1.
The value for `CCCCC(CCCC)OC(=O)CCCCCCCCC(CCCCCCCCC(=O)OC(CCCC)CCCC)OC(=O)CSC1CCN(C)CC1` [SL07] was 6.1.
The value for `CCCCC(CCCC)OC(=O)CCCCCCCCC(CCCCCCCCC(=O)OC(CCCC)CCCC)OC(=O)COCCN(C)C` [SL08] was 7.
The value for `CCCCC(CCCC)OC(=O)CCCCCCCCC(CCCCCCCCC(=O)OC(CCCC)CCCC)OC(=O)COCCCN(C)C` [SL09] was 7.1; that for `CCCCC(CCCC)OC(=O)CCCCCCCCC(CCCCCCCCC(=O)OC(CCCC)CCCC)OC(=O)CSCCN(C)C` [SL10] was 5.8; that for `CCCCC(CCCC)OC(=O)CCCCCCCCC(CCCCCCCCC(=O)OC(CCCC)CCCC)OC(=O)CSCCN(CC)CC` [SL11] was 5.6.
`CCCCC(CCCC)OC(=O)CCCCCCCCC(CCCCCCCCC(=O)OC(CCCC)CCCC)OC(=O)COC1CCN(CCCO)CC1` [SL12]: the pKa came out at 6.9.

One may read the pKa as the negative logarithm of the acid dissociation constant.
